Measurements as given in PubChem BioAssay (NCI).
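How tested: cells in 96-well plates exposed to compound for 48 hours at five concentrations. Abbreviation: GI50, concentration required for 50% inhibition of growth. TGI: concentration producing complete growth inhibition.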

Assays:
Experiment in all cases: inhibition of tumour cell growth, NCI panel, 48 h
[1] = test system: UACC-257 melanoma
[2] = test system: HS 578T breast
[3] = test system: OVCAR-8 ovarian
[4] = test system: ACHN renal
[5] = test system: NCI-H23 lung
[6] = test system: SK-MEL-5 melanoma
[7] = test system: U251 CNS
[8] = test system: SK-MEL-28 melanoma
[9] = test system: RXF 393 renal
[10] = test system: SR leukemia

SMILES	GI50 [1] [µM]	TGI [1] [µM]	GI50 [2] [µM]	TGI [2] [µM]	GI50 [3] [µM]	TGI [3] [µM]	GI50 [4] [µM]	TGI [4] [µM]	GI50 [5] [µM]	TGI [5] [µM]	GI50 [6] [µM]	TGI [6] [µM]	GI50 [7] [µM]	TGI [7] [µM]	GI50 [8] [µM]	TGI [8] [µM]	GI50 [9] [µM]	TGI [9] [µM]	TGI [10] [µM]	GI50 [10] [µM]
O=C1c2ccccc2-c2c1c1ccccc1c(=O)n2CCNCCNCCn1c2c(c3ccccc3c1=O)C(=O)c1ccccc1-2	11.3	> 48.4	4.28	38.5	0.226	2.29	0.0217	17	0.717	> 30.6	0.957	19.9	0.0382	1.59	2.9	24.5	0.114	10.3		
Cc1cc(S(=O)(=O)Nc2nnc(-c3ccccc3)c(-c3ccccc3)n2)c(SCc2ccccc2)cc1Cl	28.5	70.1	19.1	52.8	27.2	89.7	17.6	32.6	22.6	48.1	17	33.5	21.7	50.1	22.6	40.7	19.8	39.2		
O=S1(=O)C[C@@H](O)[C@H](O)CS1		> 100				> 100		> 100		> 100		> 100		> 100		> 100		> 100	> 100	
CS(=O)c1ccc(COP(N)(=O)N(CCCl)CCCl)cc1 (stereo unspecified)		> 100				> 100		> 100		> 100		> 100		> 100		> 100		> 100	> 100	
O=c1cc(-c2ccccc2)nc2n1CCN2Cc1ccccc1	37.1	> 100	26.9	81.7	47.2	> 100	25	76.7			19.9	37.4	30.5	> 100	60	> 100	46.2	> 100		
Nc1ccccc1C#C/C=C\C#Cc1ccc(Cl)cc1Cl	18.3	40.9	3.61	8.49	19.1	41.5	20.9	41.7	14.2	31.5	6.63	21.2	15.3	34	27	> 100	14.3	40.7		
N=C(N)CCCCCCCCC(=N)N	> 100	> 100	29.2	> 100	10.9	> 100	> 100	> 100	5.11	70.4	38.2	> 100	8.08	> 100	58.1	> 100	> 100	> 100		
COc1ccc2[nH]c(Cl)c(/C=C3/C(=O)N(C)c4ccccc43)c2c1	> 100	> 100	> 100	> 100	> 100	> 100	> 100	> 100	> 100	> 100	69.3	> 100	> 100	> 100	> 100	> 100	> 100	> 100		
O=C1C=Cc2ccccc2/C1=C/c1[nH]c(=O)[nH]c1O	2.93	> 100			9.6	62.5	9.97	> 100	8.19	> 100	2.84	13	5.39	35			2.78	10.2	7.83	1.67
CC[N+](CC)(CC)CCCn1c2c(c3ccccc3c1=O)C(=O)c1ccccc1-2	12.3	36.3			3.66	22.8	3.07	26.8	2.31	6.42	1.43	5.91	4.77	> 100	29.2	> 100	0.056	17.6	> 100	3.56
CC1(C)N=C(N)N=C(N)N1c1cc(Cl)ccc1Cl	> 100	> 100			> 100	> 100	> 100	> 100	> 100	> 100	> 100	> 100	> 100	> 100	> 100	> 100	> 100	> 100	> 100	> 100
CC(=O)Nc1ccc(C2[C@H]3C(=O)N(c4ccc(Cc5ccc(N6C(=O)[C@@H]7ON(c8ccccc8)C(c8ccc(NC(C)=O)cc8)[C@@H]7C6=O)cc5)cc4)C(=O)[C@H]3ON2c2ccccc2)cc1 (stereo partly specified)		> 100				> 100		> 100		> 100		> 100		> 100		> 100		> 100	> 100	
C=C1CC[C@@H]2C(C)(C)CCC[C@@]2(C)[C@@H]1Cc1cc(O)ccc1O		5.78				15.1		11.8		18.7		19.7		14.5		9.83		5.18	12.1	
O=C(O)C12C3CCCC1C2CC3 (stereo unspecified)		> 100				> 100		> 100		> 100		> 100		> 100		> 100		> 100	> 100	
N.N.NC(CS)C(=O)[O-].NC(CS)C(=O)[O-].[Pt+4] (stereo unspecified)	> 50	> 50			> 50	> 50	> 50	> 50	> 50	> 50	> 50	> 50	> 50	> 50	> 50	> 50	> 50	> 50	> 50	> 50
COc1nc(C)cc2c(=O)n(-c3ccccc3)n(CCCN3CCN(c4ccc(Cl)cc4)CC3)c(=O)c12			27.4	> 50			> 50	> 50	> 50	> 50	16.9	> 50	32.1	> 50	> 50	> 50			> 50	> 50
C[N+](C)(CCCCCC[N+](C)(C)CCCN1C(=O)c2cc3ccccc3cc2C1=O)CCCN1C(=O)c2ccccc2C1=O	> 37.5	> 37.5	> 37.5	> 37.5	> 37.5	> 37.5	> 37.5	> 37.5	> 37.5	> 37.5	> 37.5	> 37.5	> 37.5	> 37.5	> 37.5	> 37.5	> 37.5	> 37.5		
CC(C)(O)C1OCC(C2CCC3(C)C4=CCC5C(C)(C)C(O)CCC5(C)C4CCC23C)CC1O (stereo unspecified)		39.3		29.3		27.9		28.6		81.3		27.8		27.5		29.2				
COc1cc2c(/C=C3/C(=O)Nc4ccccc43)c(Cl)n(Cc3ccccc3[N+](=O)[O-])c2cc1C	17.7	85.5	15	94	26.1	> 100	4.95	19.6	7.77	22.3	5.02	19.6	11.2	25.1	3.47	12.4	18.9	96.2		
O=C1OC(=O)C2C1C1(c3ccccc3)C(c3ccccc3)=C(c3ccccc3)C2(c2ccccc2)S1=O (stereo unspecified)	> 100	> 100			> 100	> 100	> 100	> 100	> 100	> 100	> 100	> 100	> 100	> 100	> 100	> 100	> 100	> 100	> 100	49.3
COC(=O)c1ccc(N=NN(C)CO)cc1		> 100				> 100		> 100		> 100		> 100		> 100		> 100		> 100	> 100	
CC1=Cc2cc3[n-]c(cc4nc(cc5[n-]c(cc1n2)cc5C)C(C)=C4CCC(=O)O)c(CCC(=O)O)c3C.[Pd+2]	10.8	29.3					6.31	16.6	9.55	25.2	7.73	19.6	2.56	8.24	3.06	12.7	17.9	> 37.9	9.75	2.82
CC(C)(C)[C@H]1CO[C@]2(C)[C@@H]3C[C@@H]3C(=O)N12		> 100				> 100		> 100		> 100		> 100		> 100		> 100		> 100	> 100	
